In brackets after ≈: the same amount, converted by molar mass. Where two headings read alike, the source gives them in different places.
Assays:
Candida albicans = assay: MIC by broth dilution method, Candida albicans; type: cell-based; conditions: Candida albicans
Description: (§1) The preparation of the nutrient media, the antifungal agents and the fungi to be tested in the present invention are similar to those reported in S. Shadomy and A. Espinel-Ingroff, "Susceptibility Testing Of Antifungal Agents", Ch. 63, pp. 569-574 in E. H. Lennett, E. H. Spaulding, and J. P. Truant, Eds., Manual Of Clinical Microbiology, 2nd Ed., American Society for Microbiology, Washington, D.C. (1974). This publication describes the susceptibility testing of antifungal agents, namely, amphotericin B, nystatin and 5-fluoro-cytosine (5-FC), by the "broth dilution method" and the "semisolid agar dilution method". At pages 570-571, it is stated:
(§2) In 10 duplicate runs with each strain tested, the variation in minimum inhibitory concentration averaged ±0.05 μg/ml.
(§3) *Broth dilution method conducted in accordance with S. Shadomy and E.
(§4) Espinel-Ingroff, "Susceptibility Testing of Antifungal Agents", Ch. 63,
(§5) pp. 569-574 in E. H. Spaulding and J. P. Truant, Eds., Manual Of Clinical
(§6) Microbiology, 2nd Ed., American Society for Microbiology, Washington, […]

C. tropicalis = assay: MIC by broth dilution method, Candida tropicalis; type: cell-based; conditions: Candida tropicalis, read-out: Minimum Inhibitory Concentration, Broth
Description: as §1, §2, §3, §4, §5, §6

Geotrichum candidum [1] = assay: MIC by impregnated disk method, Geotrichum candidum; type: cell-based; conditions: read-out: Minimum Inhibitory Concentration, Disk
Procedure: (§7) Stock solutions of the antifungal agents to be tested are preferably prepared by diluting the antifungal agents in the proper nutrient medium. It is presently preferred to prepare dilutions in 10 ml of the proper medium to give the following final concentrations when applied to the disks (all quantities in micrograms per milliliter): 0.05, 0.08, 0.09, 0.1; 0.1 increment increases to 0.9, 1.0; 0.5 increment increases to 10.0; and 12.0, 14.0, 20.0, 25.0 and 50.0. Disks have been prepared by placing 0.05 ml of the above dilutions of antifungal agent containing medium on 6.5 mm diameter disks in 0.01 or 0.02 ml increments. The impregnated disks are then allowed to dry at a temperature preferably below about 10° C. […] The disks may also be dried by a lyophilization or freeze drying process.
(§8) To perform the tests in accordance with the present inventions, disks impregnated with various concentrations of antifungal agent and nutrient medium and a control disk impregnated only with the corresponding nutrient medium are placed on the fungus to be tested which has been applied to the non-nutrient medium. The disks are the inoculated non-nutrient medium are then incubated at a suitable temperature for a sufficient time to promote growth of the fungus. Any temperature is suitable if it will promote growth of the fungus without adversely affecting the fungus or the activity of the antifungal agent or agents tested. The time of incubation can be determined by observing the extent of growth around the control disk. […] The zones of growth or inhibition around the disks were read at 6, 12, 24, 36 and 48 hours after the disks were placed on the tested fungus.
(§9) The minimum inhibitory concentration is defined as the lowest concentration of antifungal agent which inhibits visible growth. […]
(§10) Several test disks and a control disk were placed in each petri dish containing the inoculated agar. The disks and petri dishes were then incubated at 29° C. and the minimum inhibitory concentration of the various concentrations of the antifungal agents were read at 6, 12, 24, 36 and 48 hours. […]

Geotrichum candidum [2] = assay: MIC by broth dilution method, Geotrichum candidum; type: cell-based; conditions: read-out: Minimum Inhibitory Concentration, Broth
Description: as §1, §2, §3, §4, §5, §6

Saccharomyces cerevisiae [3] = assay: MIC by impregnated disk method, Saccharomyces cerevisiae; type: cell-based; conditions: Saccharomyces cerevisiae
Procedure: as §7, §8
The minimum inhibitory concentration is defined as the lowest concentration of antifungal agent which inhibits visible growth. The disks containing concentrations of antifungal agents below the minimum inhibitory concentration show circumscribed growth of the fungus around the disk. Disks containing concentrations of antifungal agent at or above the minimum inhibitory concentration show no circumscribed growth.
Clinical isolates of various fungi listed in Table 1 were obtained from different patients diagnosed as having fungal infections. The fungal inocula were prepared by using a 24-48 hour cultures grown in yeast nitrogen base containing 1% glucose and 0.15% asparagine. After centrifuging, the supernatant was removed, the sedimented cells were washed twice with sterile distilled water and a cell suspension was adjusted to 80% transmission at 520 nm using a Beckman DB-GT grating spectrophotometer.
Sterile liquified 2% purified agar was placed in petri dishes and allowed to harden. The surface of the agar was inoculated with a sterile cotton swab saturated with a suspension of an organism. The uniformly swabbed plates were then allowed to dry.
Disks were prepared using the dilutions described above for amphotericin B, nystatin and 5-fluorocytosine. 0.05 ml of the dilutions of each antifungal agent diluted with the appropriate nutrient medium were pipetted on 6.5 mm diameter disks. The disks were dried at 4° C. after each application. Control disks were also prepared.
Several test disks and a control disk were placed in each petri dish containing the inoculated agar. The disks and petri dishes were then incubated at 29° C. and the minimum inhibitory concentration of the various concentrations of the antifungal agents were read at 6, 12, 24, 36 and 48 hours.
as §2

Saccharomyces cerevisiae [4] = assay: MIC by broth dilution method, Saccharomyces cerevisiae; type: cell-based; conditions: Saccharomyces cerevisiae
Description: as §1, §2, §3, §4, §5, §6

Torulopsis glabrata [5] = assay: MIC by impregnated disk method, Torulopsis glabrata; type: cell-based; conditions: Nakaseomyces glabratus, read-out: Minimum Inhibitory Concentration, Disk
Procedure: as §7, §8, §9, §10

Torulopsis glabrata [6] = assay: MIC by broth dilution method, Torulopsis glabrata; type: cell-based; conditions: Nakaseomyces glabratus, read-out: Minimum Inhibitory Concentration, Broth
Description: as §1, §2, §3, §4, §5, §6

Candida tropicalis = assay: Susceptibility to combination of antifungal agents on disks (Example 3); type: cell-based
Description: The method of the present invention also may be used to test combinations of antifungal agents. In this method, more than one antifungal agent of known concentration is impregnated in each test disk.
Each disk is impregnated with a particular known concentration of at least one particular antifungal agent, except for the control disks. When the susceptibility of a fungus to combinations of antifungal agents is being tested, more than one antifungal agent is impregnated in each test disk.
The susceptibility of two other isolates to combinations of antifungal agents were tested by combining more than one antifungal agent on each test disk. A series of test disks were prepared containing various combinations of antifungal agents in various concentrations and were used in the method of the present invention. The results of this procedure are summarized in the following specific, non-limiting examples:
An isolate of Candida tropicalis was initially tested for amphotericin B susceptibility of 0.5 μg/ml. When a combination of amphotericin B and tetracycline were combined on the disks used in the testing procedure according to the present invention, effective inhibition of the isolate occurred using 0.05 μg/ml of amphotericin B and 0.2 μg/ml of tetracycline.

[7] = cited from earlier work

C[C@@H]1[C@H](O)[C@@H](C)/C=C/C=C/C=C/C=C/C=C/C=C/C=C/[C@H](O[C@@H]2O[C@H](C)[C@@H](O)[C@H](N)[C@@H]2O)C[C@@H]2O[C@](O)(C[C@@H](O)C[C@@H](O)[C@H](O)CC[C@@H](O)C[C@@H](O)CC(=O)O[C@H]1C)C[C@H](O)[C@H]2C(=O)O [Amphotericin B, amphotericin B]
MIC (Candida albicans; isolate 1, read-out: Minimum Inhibitory Concentration, Broth): 0.4 µg/mL (≈ 0.433 µM) | MIC (Candida albicans; isolate 2, read-out: Minimum Inhibitory Concentration, Broth): 0.7 µg/mL (≈ 0.758 µM) | MIC (Candida albicans; isolate 3, read-out: Minimum Inhibitory Concentration, Broth): 0.1 µg/mL (≈ 0.108 µM) | MIC (Candida albicans; isolate 4, read-out: Minimum Inhibitory Concentration, Broth): 0.6 µg/mL (≈ 0.649 µM) | MIC (Candida albicans; isolate 5, read-out: Minimum Inhibitory Concentration, Broth): 0.8 µg/mL (≈ 0.866 µM) | MIC (Candida albicans; isolate 6, read-out: Minimum Inhibitory Concentration, Broth): 1.5 µg/mL (≈ 1.62 µM) | MIC (C. tropicalis): 0.8 µg/mL (≈ 0.866 µM) | MIC (Geotrichum candidum [1]): 0.8 µg/mL (≈ 0.866 µM) | MIC (Geotrichum candidum [2]): 0.9 µg/mL (≈ 0.974 µM) | MIC (Saccharomyces cerevisiae [3]; read-out: Minimum Inhibitory Concentration, Disk, S. cerevisiae isolate 2): 0.6 µg/mL (≈ 0.649 µM) | MIC (Saccharomyces cerevisiae [3]; read-out: Minimum Inhibitory Concentration, Disk, Saccharomyces cerevisiae isolate 1): 0.4 µg/mL (≈ 0.433 µM) | MIC (Saccharomyces cerevisiae [4]; read-out: Minimum Inhibitory Concentration, Broth, S. cerevisiae isolate 2): 0.8 µg/mL (≈ 0.866 µM) | MIC (Saccharomyces cerevisiae [4]; read-out: Minimum Inhibitory Concentration, Broth, Saccharomyces cerevisiae isolate 1): 0.4 µg/mL (≈ 0.433 µM) | MIC (Torulopsis glabrata [5]): 0.2 µg/mL (≈ 0.216 µM) | MIC (Torulopsis glabrata [6]): 0.3 µg/mL (≈ 0.325 µM) | MIC (Candida tropicalis; Candida tropicalis isolate, alone, initially tested, read-out: amphotericin B susceptibility): 0.5 µg/mL | effective inhibition of the isolate, concentration of amphotericin B (Candida tropicalis; in combination with tetracycline 0.2 μg/ml): 0.05 µg/mL | stability in acid ([7]; in the presence of acid): unstable in the presence of acid | thermal stability ([7]; upon incubation): subject to thermal destruction upon incubation | solubility in water ([7]; water): insoluble in water

— US4168206A, “Impregnated disk method for testing antifungal susceptibility” (Philadelphia College of Osteopathic Medicine, priority 1977, dated 1979)
